Data as given in BindingDB's records for doi:10.1016/j.bmcl.2003.11.032 (Abbott Laboratories, 2004).

Experiments:
[1] = target: Histamine H3 receptor (Rattus norvegicus, UniProt Q9QYN8); assay: Binding potency was determined by displacement of [3H]N-alpha-methyl histamine from histamine H3 receptor of rat cortical membranes
[2] = target: Histamine H3 receptor (Homo sapiens, UniProt Q9Y5N1); assay: Binding potency was determined by displacement of [3H]N-alpha-methyl histamine from cloned human histamine H3 receptor expressed in C6 cells
Sequence of Histamine H3 receptor (Homo sapiens, UniProt Q9Y5N1) (Q9Y5N1 whole entry): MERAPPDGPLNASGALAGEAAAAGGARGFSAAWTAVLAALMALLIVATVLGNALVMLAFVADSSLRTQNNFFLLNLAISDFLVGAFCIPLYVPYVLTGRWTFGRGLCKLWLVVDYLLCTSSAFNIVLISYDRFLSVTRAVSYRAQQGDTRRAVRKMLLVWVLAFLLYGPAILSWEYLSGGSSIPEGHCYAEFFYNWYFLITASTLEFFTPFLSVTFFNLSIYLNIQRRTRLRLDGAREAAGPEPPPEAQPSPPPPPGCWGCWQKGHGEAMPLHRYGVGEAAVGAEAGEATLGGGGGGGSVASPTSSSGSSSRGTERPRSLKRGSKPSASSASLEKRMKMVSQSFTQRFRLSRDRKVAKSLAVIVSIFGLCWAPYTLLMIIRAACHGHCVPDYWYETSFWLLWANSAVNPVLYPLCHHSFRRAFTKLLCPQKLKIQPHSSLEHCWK

Sequence of Histamine H3 receptor (Rattus norvegicus, UniProt Q9QYN8) (Q9QYN8 whole entry): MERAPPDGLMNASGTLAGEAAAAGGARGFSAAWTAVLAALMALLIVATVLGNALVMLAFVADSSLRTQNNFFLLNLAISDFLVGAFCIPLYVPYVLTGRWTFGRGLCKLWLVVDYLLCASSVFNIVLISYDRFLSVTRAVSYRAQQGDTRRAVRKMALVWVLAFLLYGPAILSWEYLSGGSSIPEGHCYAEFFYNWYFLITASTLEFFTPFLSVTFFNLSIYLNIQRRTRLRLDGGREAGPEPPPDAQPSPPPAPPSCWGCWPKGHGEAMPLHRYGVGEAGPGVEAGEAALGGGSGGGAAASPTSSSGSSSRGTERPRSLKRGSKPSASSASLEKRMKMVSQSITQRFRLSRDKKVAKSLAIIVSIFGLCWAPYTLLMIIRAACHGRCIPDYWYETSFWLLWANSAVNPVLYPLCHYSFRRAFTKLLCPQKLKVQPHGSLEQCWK

| Structure (SMILES) | Ki [1] [nM] | Ki [2] [nM] |
| --- | --- | --- |
| CC1CCCCN1CCc1cc2cc(-c3ccc(C(=O)N4CCOCC4)cc3)ccc2o1 (configuration not stated) [(4-{2-[2-(2-Methyl-piperidin-1-yl)-ethyl]-benzofuran-5-yl}-phenyl)-morpholin-4-yl-methanone] | 13 |  |
| O=C(c1ccc(-c2ccc3oc(CCN4CCCCC4)cc3c2)nc1)N1CCOCC1 [Morpholin-4-yl-{6-[2-(2-piperidin-1-yl-ethyl)-benzofuran-5-yl]-pyridin-3-yl}-methanone] |  | 13 |
